Laboratory results from ChEMBL document CHEMBL6096664, “Discovery of novel KSP-targeting PROTACs with potent antitumor effects in vitro and in vivo” (Eur J Med Chem, 2025).

Assays:
[1] = target: T1, Kinesin-like protein KIF11 (Homo sapiens, UniProt P52732); test: Inhibition of KSP (unknown origin) ATPase activity preincubated for 30 mins followed by ATP addition and measured after 15 mins by Kinase-Glo Plus reagent based luminescence analysis
T1 sequence (P52732 whole entry): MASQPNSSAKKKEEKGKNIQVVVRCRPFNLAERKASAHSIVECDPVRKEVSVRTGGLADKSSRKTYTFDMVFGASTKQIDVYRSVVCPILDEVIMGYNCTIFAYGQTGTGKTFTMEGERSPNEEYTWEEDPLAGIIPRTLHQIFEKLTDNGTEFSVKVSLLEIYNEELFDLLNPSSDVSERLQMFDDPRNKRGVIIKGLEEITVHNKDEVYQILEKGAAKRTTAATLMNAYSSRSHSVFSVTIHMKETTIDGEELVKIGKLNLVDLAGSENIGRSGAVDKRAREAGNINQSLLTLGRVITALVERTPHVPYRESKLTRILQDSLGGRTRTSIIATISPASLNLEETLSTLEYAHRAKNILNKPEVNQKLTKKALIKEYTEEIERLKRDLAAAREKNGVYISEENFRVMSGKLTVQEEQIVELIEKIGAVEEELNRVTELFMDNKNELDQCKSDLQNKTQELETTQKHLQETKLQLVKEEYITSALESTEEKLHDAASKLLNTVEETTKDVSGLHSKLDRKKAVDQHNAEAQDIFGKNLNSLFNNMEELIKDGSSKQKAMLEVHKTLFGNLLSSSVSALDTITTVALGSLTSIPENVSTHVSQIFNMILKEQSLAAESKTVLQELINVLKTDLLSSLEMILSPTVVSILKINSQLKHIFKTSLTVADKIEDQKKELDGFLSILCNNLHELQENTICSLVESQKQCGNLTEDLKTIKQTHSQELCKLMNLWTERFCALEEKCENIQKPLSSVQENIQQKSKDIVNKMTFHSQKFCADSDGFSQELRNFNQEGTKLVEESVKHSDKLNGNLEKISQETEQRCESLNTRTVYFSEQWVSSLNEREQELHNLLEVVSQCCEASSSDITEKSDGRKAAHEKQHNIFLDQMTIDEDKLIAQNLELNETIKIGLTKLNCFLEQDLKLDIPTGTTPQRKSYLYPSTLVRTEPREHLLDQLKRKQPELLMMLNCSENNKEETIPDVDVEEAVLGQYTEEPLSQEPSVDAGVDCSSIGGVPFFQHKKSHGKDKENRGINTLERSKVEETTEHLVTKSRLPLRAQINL

MCF7 = test: Antiproliferative activity against human MCF7 cells assessed as inhibition of cell proliferation measured after 72 hrs by CCK8 assay; assay type: functional, cell-based; conditions: MCF7, 72 h

With `COc1ccc(C2(SC[C@H](N)C(=O)NCCCCCCCCNC(=O)COc3cccc4c3C(=O)N(C3CCC(=O)NC3=O)C4=O)c3ccccc3C=Cc3ccccc32)cc1` (some centres not stated) as the molecule, how does the IC50 [1] read?
The IC50 was 0.29 µM.

What about the IC50 (MCF7) of the same molecule?
Its IC50 is 0.424 µM.
